IC50 data for 27 compounds are collected here from US20200016159A1, “N3-CYCLICALLY SUBSTITUTED THIENOURACILS AND USE THEREOF” (Bayer Aktiengesellschaft, priority 2016, published 2020).

In this assay the target is T1, human adenosine A2b receptor (Homo sapiens, UniProt P29275).
T1 sequence (P29275 1-332): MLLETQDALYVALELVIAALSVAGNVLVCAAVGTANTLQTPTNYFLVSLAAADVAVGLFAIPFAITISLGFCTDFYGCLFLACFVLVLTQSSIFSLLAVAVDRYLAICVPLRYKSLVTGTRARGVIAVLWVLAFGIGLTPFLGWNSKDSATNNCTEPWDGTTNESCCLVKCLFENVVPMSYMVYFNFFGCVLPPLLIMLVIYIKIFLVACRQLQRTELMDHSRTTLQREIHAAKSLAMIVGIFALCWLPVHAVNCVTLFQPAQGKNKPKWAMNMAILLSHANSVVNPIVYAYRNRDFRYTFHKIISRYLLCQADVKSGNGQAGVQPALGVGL
As to the kind of experiment: Cellular in vitro reporter gene test for A2b receptor activity (antagonism of NECA). It is filed as cell-based. Set-up: expressed in transfected cells; host or cells: CHO-K1 (Chinese hamster ovary) with CRE-luciferase reporter. The conditions noted are these: recombinant CHO-K1 cells, CRE-luciferase reporter, co-incubation with EC50 concentration of NECA, 3 hours. In short, it runs like this: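 Antagonism measured as block of NECA-induced, cAMP/CRE-dependent luciferase expression in recombinant A2b CHO-K1 cells. NECA used at the EC50 set in a pre-experiment on each test day; luminescence detected after 3 h. Reported as IC50, partly averaged and rounded to two significant figures.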
On the technique in general: A reporter such as luciferase makes a cellular process visible.

As for `Cc1c(Cn2nc[nH]c2=O)sc2c1c(=O)n(C1CC1)c(=O)n2CC1CCC(F)(F)C1` (single isomer, unassigned) [Example 210, 3-Cyclopropyl-1-[(3,3-difluorocyclopentyl)methyl]-5-methyl-6-[(5-oxo-4,5-dihydro-1H-1,2,4-triazol-1-yl)methyl]thieno[2,3-d]pyrimidine-2,4(1H,3H)-dione], the IC50 is 200 nM.

As for `Cc1c(Cn2nc[nH]c2=O)sc2c1c(=O)n(C1CC1)c(=O)n2CC1CCC(F)(F)C1` (single isomer, unassigned) [Example 211, 3-Cyclopropyl-1-[(3,3-difluorocyclopentyl)methyl]-5-methyl-6-[(5-oxo-4,5-dihydro-1H-1,2,4-triazol-1-yl)methyl]thieno[2,3-d]pyrimidine-2,4(1H,3H)-dione], the IC50 came to 1300 nM.

As to `Cc1c(CN2CCNC2=O)sc2c1c(=O)n(C1CC1C)c(=O)n2C` (single isomer, unassigned) [Example 222, 1,5-Dimethyl-3-(2-methylcyclopropyl)-6-[(2-oxoimidazolidin-1-yl)methyl]thieno[2,3-d]pyrimidine-2,4(1H,3H)-dione], the IC50 is 1.6 nM.

Regarding `Cc1c(CN2CCNC2=O)sc2c1c(=O)n(C1CC1C)c(=O)n2C` (single isomer, unassigned) [Example 223, 1,5-Dimethyl-3-(2-methylcyclopropyl)-6-[(2-oxoimidazolidin-1-yl)methyl]thieno[2,3-d]pyrimidine-2,4(1H,3H)-dione], the IC50 stood at 19 nM.

Turning to `CCn1c(=O)n(C2CC2C)c(=O)c2c(C)c(CN3CCNC3=O)sc21` (single isomer, unassigned) [Example 225, 1-Ethyl-5-methyl-3-(2-methylcyclopropyl)-6-[(2-oxoimidazolidin-1-yl)methyl]thieno[2,3-d]pyrimidine-2,4(1H,3H)-dione], the IC50 was 26 nM.

As to `CCn1c(=O)n(C2CC2C)c(=O)c2c(C)c(CN3CCNC3=O)sc21` (single isomer, unassigned) [Example 226, 1-Ethyl-5-methyl-3-(2-methylcyclopropyl)-6-[(2-oxoimidazolidin-1-yl)methyl]thieno[2,3-d]pyrimidine-2,4(1H,3H)-dione], the IC50 stood at 1.9 nM.

On to `CCCn1c(=O)n(C2CC2C)c(=O)c2c(C)c(CN3CCNC3=O)sc21` (single isomer, unassigned) [Example 228, 5-Methyl-3-(2-methylcyclopropyl)-6-[(2-oxoimidazolidin-1-yl)methyl]-1-propylthieno[2,3-d]pyrimidine-2,4(1H,3H)-dione], for which the IC50 worked out at 5.8 nM.

For `CCCn1c(=O)n(C2CC2C)c(=O)c2c(C)c(CN3CCNC3=O)sc21` (single isomer, unassigned) [Example 229, 5-Methyl-3-(2-methylcyclopropyl)-6-[(2-oxoimidazolidin-1-yl)methyl]-1-propylthieno[2,3-d]pyrimidine-2,4(1H,3H)-dione], the IC50 worked out at 1.2 nM.

As to `Cc1c(CN2CCNC2=O)sc2c1c(=O)n(C1CC1C)c(=O)n2CCF` (single isomer, unassigned) [Example 232, 1-(2-Fluoroethyl)-5-methyl-3-(2-methylcyclopropyl)-6-[(2-oxoimidazolidin-1-yl)methyl]thieno[2,3-d]pyrimidine-2,4(1H,3H)-dione], the IC50 stood at 0.86 nM.

On to `Cc1c(CN2CCNC2=O)sc2c1c(=O)n(C1CC1C)c(=O)n2CCF` (single isomer, unassigned) [Example 233, 1-(2-Fluoroethyl)-5-methyl-3-(2-methylcyclopropyl)-6-[(2-oxoimidazolidin-1-yl)methyl]thieno[2,3-d]pyrimidine-2,4(1H,3H)-dione], for which the half-maximal inhibitory concentration (IC50) came out at 11 nM.

On to `Cc1c(CN2CCNC2=O)sc2c1c(=O)n(C1CC1C)c(=O)n2CC(F)F` (single isomer, unassigned) [Example 235, 1-(2,2-Difluoroethyl)-5-methyl-3-(2-methylcyclopropyl)-6-[(2-oxoimidazolidin-1-yl)methyl]thieno[2,3-d]pyrimidine-2,4(1H,3H)-dione], for which the IC50 was 18 nM.

For the compound `Cc1c(CN2CCNC2=O)sc2c1c(=O)n(C1CC1C)c(=O)n2CC(F)F` (single isomer, unassigned) [Example 236, 1-(2,2-Difluoroethyl)-5-methyl-3-(2-methylcyclopropyl)-6-[(2-oxoimidazolidin-1-yl)methyl]thieno[2,3-d]pyrimidine-2,4(1H,3H)-dione], the IC50 is 1.2 nM.

For the compound `Cc1c(CN2CCNC2=O)sc2c1c(=O)n(C1CC1C)c(=O)n2CC(F)(F)F` (single isomer, unassigned) [Example 238, 5-Methyl-3-(2-methylcyclopropyl)-6-[(2-oxoimidazolidin-1-yl)methyl]-1-(2,2,2-trifluoroethyl)thieno[2,3-d]pyrimidine-2,4(1H,3H)-dione], the IC50 amounted to 24 nM.

On to `Cc1c(CN2CCNC2=O)sc2c1c(=O)n(C1CC1C)c(=O)n2CC(F)(F)F` (single isomer, unassigned) [Example 239, 5-Methyl-3-(2-methylcyclopropyl)-6-[(2-oxoimidazolidin-1-yl)methyl]-1-(2,2,2-trifluoroethyl)thieno[2,3-d]pyrimidine-2,4(1H,3H)-dione], for which the IC50 was found to be 4.7 nM.

On to `Cc1c(CN2CCNC2=O)sc2c1c(=O)n(C1CC1C)c(=O)n2CCC(F)(F)F` (single isomer, unassigned) [Example 240, 5-Methyl-3-(2-methylcyclopropyl)-6-[(2-oxoimidazolidin-1-yl)methyl]-1-(3,3,3-trifluoropropyl)thieno[2,3-d]pyrimidine-2,4(1H,3H)-dione], for which the IC50 is 2.4 nM.

`Cc1c(CN2CCNC2=O)sc2c1c(=O)n(C1CC1C)c(=O)n2CCC(F)(F)F` (single isomer, unassigned) [Example 241, 5-Methyl-3-(2-methylcyclopropyl)-6-[(2-oxoimidazolidin-1-yl)methyl]-1-(3,3,3-trifluoropropyl)thieno[2,3-d]pyrimidine-2,4(1H,3H)-dione]: the IC50 stood at 7.1 nM.

`Cc1c(CN2CCNC2=O)sc2c1c(=O)n(C1CC1C)c(=O)n2CCCC(F)(F)F` (single isomer, unassigned) [Example 243, 5-Methyl-3-(2-methylcyclopropyl)-6-[(2-oxoimidazolidin-1-yl)methyl]-1-(4,4,4-trifluorobutyl)thieno[2,3-d]pyrimidine-2,4(1H,3H)-dione]: the IC50 turned out to be 8.4 nM.

Turning to `Cc1c(CN2CCNC2=O)sc2c1c(=O)n(C1CC1C)c(=O)n2CCCC(F)(F)F` (single isomer, unassigned) [Example 244, 5-Methyl-3-(2-methylcyclopropyl)-6-[(2-oxoimidazolidin-1-yl)methyl]-1-(4,4,4-trifluorobutyl)thieno[2,3-d]pyrimidine-2,4(1H,3H)-dione], the IC50 came out at 3.3 nM.

With `Cc1c(CN2CCNC2=O)sc2c1c(=O)n(C1CC1C)c(=O)n2CCC(F)(F)C(F)F` (single isomer, unassigned) [Example 246, 5-Methyl-3-(2-methylcyclopropyl)-6-[(2-oxoimidazolidin-1-yl)methyl]-1-(3,3,4,4-tetrafluorobutyl)thieno[2,3-d]pyrimidine-2,4(1H,3H)-dione], the IC50 worked out at 22 nM.

For `Cc1c(CN2CCNC2=O)sc2c1c(=O)n(C1CC1C)c(=O)n2CCC(F)(F)C(F)F` (single isomer, unassigned) [Example 247, 5-Methyl-3-(2-methylcyclopropyl)-6-[(2-oxoimidazolidin-1-yl)methyl]-1-(3,3,4,4-tetrafluorobutyl)thieno[2,3-d]pyrimidine-2,4(1H,3H)-dione], the IC50 was determined as 3.5 nM.

With `Cc1c(CN2CCNC2=O)sc2c1c(=O)n([C@H]1C[C@@H]1C)c(=O)n2CC1CC1(F)F` (single isomer, unassigned) [Example 250], the IC50 amounted to 1.1 nM.

`Cc1c(CN2CCNC2=O)sc2c1c(=O)n([C@H]1C[C@@H]1C)c(=O)n2CC1CC1(F)F` (single isomer, unassigned) [Example 251]: the IC50 is 6.3 nM.

Turning to `Cc1c(CN2CCNC2=O)sc2c1c(=O)n(C1CC1C)c(=O)n2CC1CC(F)(F)C1` (single isomer, unassigned) [Example 253, 1-[(3,3-Difluorocyclobutyl)methyl]-5-methyl-3-(2-methylcyclopropyl)-6-[(2-oxoimidazolidin-1-yl)methyl]thieno[2,3-d]pyrimidine-2,4(1H,3H)-dione], the IC50 is 2.7 nM.

In the case of `Cc1c(CN2CCNC2=O)sc2c1c(=O)n(C1CC1C)c(=O)n2CC1CC(F)(F)C1` (single isomer, unassigned) [Example 254, 1-[(3,3-Difluorocyclobutyl)methyl]-5-methyl-3-(2-methylcyclopropyl)-6-[(2-oxoimidazolidin-1-yl)methyl]thieno[2,3-d]pyrimidine-2,4(1H,3H)-dione], the IC50 stood at 7.2 nM.

With `Cc1c(CN2CCNC2=O)sc2c1c(=O)n([C@H]1C[C@@H]1C)c(=O)n2CC1CCC(F)(F)C1` (single isomer, unassigned) [Example 256], the concentration for half-maximal inhibition (IC50) turned out to be 5.5 nM.

Take `Cc1c(CN2CCNC2=O)sc2c1c(=O)n([C@H]1C[C@@H]1C)c(=O)n2CC1CCC(F)(F)C1` (single isomer, unassigned) [Example 257]: the IC50 is 6.8 nM.

For the compound `COCCn1c(=O)n(C2CC2C)c(=O)c2c(C)c(CN3CCNC3=O)sc21` (single isomer, unassigned) [Example 259, 1-(2-Methoxyethyl)-5-methyl-3-(2-methylcyclopropyl)-6-[(2-oxoimidazolidin-1-yl)methyl]thieno[2,3-d]pyrimidine-2,4(1H,3H)-dione], the 50% inhibitory concentration (IC50) was 4.1 nM.

In general, IC50 refers to the concentration at which inhibition is half-maximal.
